Assay results taken from patent US5932574A, “Quinazoline derivatives” (Zeneca Limited, priority 1995, dated 1999).
pIC50: −log10 of the molar value.

Experiments:
[1] = test system: human mammary carcinoma which expresses EGF receptor tyrosine kinase; conditions: in words; athymic nude mice; Toi et al., 1990; cited from earlier work
[2] = test system: another carcinoma which does not express EGF receptor tyrosine kinase; conditions: in words; Toi et al., 1990; cited from earlier work
[3] = molecular target: T1, EGF receptor tyrosine kinase (Homo sapiens, UniProt P00533); assay: Inhibition of EGF receptor tyrosine kinase in vitro, Test (a); type: biochemical; conditions: approximate
T1 construct: Receptor tyrosine kinase was obtained in partially purified form from A-431 cells (derived from human vulval carcinoma); endogenous in cells; host or cells: A-431 cells (Triton X-100 solubilised membrane fraction)
Experimental: (a) An in vitro assay which determines the ability of a test compound to inhibit the enzyme EGF receptor tyrosine kinase. Receptor tyrosine kinase was obtained in partially purified form from A-431 cells (derived from human vulval carcinoma) by the procedures described below which are related to those described by Carpenter et al., J. Biol. Chem., 1979, 254, 4884, Cohen et al., J. Biol. Chem., 1982, 257, 1523 and by Braun et al., J. Biol. Chem., 1984, 259, 2051.
A-431 cells were grown to confluence using Dulbecco's modified Eagle's medium (DMEM) containing 5% fetal calf serum (FCS). The obtained cells were homogenised in a hypotonic borate/EDTA buffer at pH 10.1. The homogenate was centrifuged at 400 g for 10 minutes at 0-4° C. The supernatant was centrifuged at 25,000 g for 30 minutes at 0-4° C. […]
The test compound/EGF mixture solution (5 μl) was added to the test enzyme solution (10 μl) and the mixture was incubated at 0-4° C. for 30 minutes. […] Radioactivity present in the filter paper was measured using a liquid scintillation counter (Sequence A). […]
Receptor tyrosine kinase inhibition was calculated as follows: [formula]
The extent of inhibition was then determined at a range of concentrations of test compound to give an IC50 value.

[4] = test system: human naso-pharyngeal cancer cell line KB; assay: Inhibition of EGF-stimulated growth of human naso-pharyngeal cancer cell line KB, Test (b); type: cell-based; conditions: 72 h, EGF (10 ng/ml), 3 days, approximate
Experimental: (b) An in vitro assay which determines the ability of a test compound to inhibit the EGF-stimulated growth of the human naso-pharyngeal cancer cell line KB. […] Cell growth was determined after incubation for 3 days by the extent of metabolism of MTT tetrazolium dye to furnish a bluish colour. Cell growth was then determined in the presence of EGF (10 ng/ml) or in the presence of EGF (10 ng/ml) and a test compound at a range of concentrations. An IC50 value could then be calculated.

[5] = test system: human vulval epidermoid carcinoma cell line A-431; assay: Inhibition of growth of A-431 xenografts in athymic nude mice, Test (c); type: in vivo, human xenograft in athymic nude mice (strain ONU:Alpk); conditions: daily dose of 50 mg/kg, usually oral, relative to untreated controls
Experimental: (c) An in-vivo assay in a group of athymic nude mice (strain ONU:Alpk) which determines the ability of a test compound (usually administered orally as a ball-milled suspension in 0.5% polysorbate) to inhibit the growth of xenografts of the human vulval epidermoid carcinoma cell line A-431. A-431 cells were maintained in culture in DMEM supplemented with 5% FCS and 2 mM glutamine. Freshly cultured cells were harvested by trypsinization and injected subcutaneously (10 million cells/0.1 ml/mouse) into both flanks of a number of donor nude mice. When sufficient tumour material was available (after approximately 9 to 14 days), fragments of tumour tissue were transplanted in the flanks of recipient nude mice (test day 0). Generally, on the seventh day after transplantation (test day 7) groups of 7 to 10 mice with similar-sized tumours were selected and dosing of the test compound was commenced. Once daily dosing of test compound was continued for a total of 13 days (test days 7 to 19 inclusive). In some studies the dosing of the test compound was continued beyond test day 19, for example to test day 26. In each case, on the following test day the animals were killed and the final tumour volume was calculated from measurements of the length and width of the tumours. Results were calculated as a percentage inhibition of tumour volume relative to untreated controls.

T1 sequence (P00533 25-1210): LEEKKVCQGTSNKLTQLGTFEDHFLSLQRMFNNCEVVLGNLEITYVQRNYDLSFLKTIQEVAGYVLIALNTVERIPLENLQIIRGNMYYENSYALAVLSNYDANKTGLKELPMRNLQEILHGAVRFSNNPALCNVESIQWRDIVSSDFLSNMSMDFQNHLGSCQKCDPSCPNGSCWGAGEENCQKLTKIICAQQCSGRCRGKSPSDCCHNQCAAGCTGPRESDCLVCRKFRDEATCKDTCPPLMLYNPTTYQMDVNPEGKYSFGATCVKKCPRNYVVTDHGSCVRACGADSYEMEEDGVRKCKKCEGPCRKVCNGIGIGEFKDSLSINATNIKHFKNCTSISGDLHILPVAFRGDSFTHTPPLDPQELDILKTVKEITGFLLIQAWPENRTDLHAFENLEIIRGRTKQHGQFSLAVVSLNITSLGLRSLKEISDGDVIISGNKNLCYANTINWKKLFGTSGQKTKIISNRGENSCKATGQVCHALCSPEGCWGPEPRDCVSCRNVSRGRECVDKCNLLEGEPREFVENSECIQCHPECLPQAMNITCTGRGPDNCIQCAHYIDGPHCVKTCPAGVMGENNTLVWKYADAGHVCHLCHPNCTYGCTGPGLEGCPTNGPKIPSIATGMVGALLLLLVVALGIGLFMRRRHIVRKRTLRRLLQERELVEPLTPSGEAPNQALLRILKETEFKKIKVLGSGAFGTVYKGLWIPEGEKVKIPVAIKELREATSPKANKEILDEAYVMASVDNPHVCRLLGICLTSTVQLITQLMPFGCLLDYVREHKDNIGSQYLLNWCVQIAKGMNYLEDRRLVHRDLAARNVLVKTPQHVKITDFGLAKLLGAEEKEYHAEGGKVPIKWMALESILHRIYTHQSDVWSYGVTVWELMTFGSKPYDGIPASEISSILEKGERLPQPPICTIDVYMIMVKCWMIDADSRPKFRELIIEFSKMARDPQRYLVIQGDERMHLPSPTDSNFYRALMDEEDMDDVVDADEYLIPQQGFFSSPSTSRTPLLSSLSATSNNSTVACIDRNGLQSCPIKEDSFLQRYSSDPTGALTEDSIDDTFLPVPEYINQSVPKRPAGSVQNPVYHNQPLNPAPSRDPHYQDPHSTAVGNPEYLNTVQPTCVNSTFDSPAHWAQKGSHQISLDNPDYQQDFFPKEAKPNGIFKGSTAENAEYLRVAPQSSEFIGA

Row | SMILES | growth of transplanted human mammary carcinoma [1] | growth of carcinoma not expressing EGF receptor tyrosine kinase [2] | pIC50 [3] | pIC50 [4] | inhibition of tumour volume [5]
1 | O=CN/C=C/c1cc(O)ccc1O [erbstatin] | specifically attenuates the growth | without effect on the growth |  |  | 
2 | CCN(CC)CCCOc1ccc2ncnc(Nc3ccc(F)c(Cl)c3)c2c1 [4-(3'-chloro-4'-fluoroanilino)-6-(3-diethylaminopropoxy)quinazoline] |  |  | ~8.52 | ~7.00 | greater than 50%
3 | Fc1ccc(Nc2ncnc3ccc(OCCCN4CCOCC4)cc23)cc1F [4-(3',4'-difluoroanilino)-6-(3-morpholinopropoxy)quinazoline] |  |  |  | ~5.92 | greater than 50%
